Test results taken from BindingDB's records for doi:10.1002/cbic.200400192 (Max-Planck-Institut FÜR Molekulare Physiologie, 2005).

Legend:
Assay in all cases: Inhibition Assay
Angiopoietin-1 receptor = Angiopoietin-1 receptor (Homo sapiens, UniProt Q02763)
Description: (§1) The kinase-catalyzed phosphorylation of poly(Glu4-Tyr) in the presence of varying concentrations of inhibitor was determined. The kinase were employed as fusion proteins of glutathion-S-transferase (GST) and the kinase domain. The relative amount of phosphorylated substrate was quantified by antiphosphotyrosine enzyme-linked immunosorbent assay.

[1] = biological target: Vascular endothelial growth factor receptor 2 (Homo sapiens, UniProt P35968)
Description: as §1

[2] = biological target: Vascular endothelial growth factor receptor 3 (Homo sapiens, UniProt P35916)
Description: as §1

[3] = biological target: Epidermal growth factor receptor (Homo sapiens, UniProt P00533)
Description: as §1

[4] = biological target: Fibroblast growth factor receptor 1 (Homo sapiens, UniProt P11362)
Description: as §1

[5] = biological target: Insulin-like growth factor 1 receptor (Homo sapiens, UniProt P08069)
Description: as §1

Vascular endothelial growth factor receptor 2, sequence (P35968 whole entry): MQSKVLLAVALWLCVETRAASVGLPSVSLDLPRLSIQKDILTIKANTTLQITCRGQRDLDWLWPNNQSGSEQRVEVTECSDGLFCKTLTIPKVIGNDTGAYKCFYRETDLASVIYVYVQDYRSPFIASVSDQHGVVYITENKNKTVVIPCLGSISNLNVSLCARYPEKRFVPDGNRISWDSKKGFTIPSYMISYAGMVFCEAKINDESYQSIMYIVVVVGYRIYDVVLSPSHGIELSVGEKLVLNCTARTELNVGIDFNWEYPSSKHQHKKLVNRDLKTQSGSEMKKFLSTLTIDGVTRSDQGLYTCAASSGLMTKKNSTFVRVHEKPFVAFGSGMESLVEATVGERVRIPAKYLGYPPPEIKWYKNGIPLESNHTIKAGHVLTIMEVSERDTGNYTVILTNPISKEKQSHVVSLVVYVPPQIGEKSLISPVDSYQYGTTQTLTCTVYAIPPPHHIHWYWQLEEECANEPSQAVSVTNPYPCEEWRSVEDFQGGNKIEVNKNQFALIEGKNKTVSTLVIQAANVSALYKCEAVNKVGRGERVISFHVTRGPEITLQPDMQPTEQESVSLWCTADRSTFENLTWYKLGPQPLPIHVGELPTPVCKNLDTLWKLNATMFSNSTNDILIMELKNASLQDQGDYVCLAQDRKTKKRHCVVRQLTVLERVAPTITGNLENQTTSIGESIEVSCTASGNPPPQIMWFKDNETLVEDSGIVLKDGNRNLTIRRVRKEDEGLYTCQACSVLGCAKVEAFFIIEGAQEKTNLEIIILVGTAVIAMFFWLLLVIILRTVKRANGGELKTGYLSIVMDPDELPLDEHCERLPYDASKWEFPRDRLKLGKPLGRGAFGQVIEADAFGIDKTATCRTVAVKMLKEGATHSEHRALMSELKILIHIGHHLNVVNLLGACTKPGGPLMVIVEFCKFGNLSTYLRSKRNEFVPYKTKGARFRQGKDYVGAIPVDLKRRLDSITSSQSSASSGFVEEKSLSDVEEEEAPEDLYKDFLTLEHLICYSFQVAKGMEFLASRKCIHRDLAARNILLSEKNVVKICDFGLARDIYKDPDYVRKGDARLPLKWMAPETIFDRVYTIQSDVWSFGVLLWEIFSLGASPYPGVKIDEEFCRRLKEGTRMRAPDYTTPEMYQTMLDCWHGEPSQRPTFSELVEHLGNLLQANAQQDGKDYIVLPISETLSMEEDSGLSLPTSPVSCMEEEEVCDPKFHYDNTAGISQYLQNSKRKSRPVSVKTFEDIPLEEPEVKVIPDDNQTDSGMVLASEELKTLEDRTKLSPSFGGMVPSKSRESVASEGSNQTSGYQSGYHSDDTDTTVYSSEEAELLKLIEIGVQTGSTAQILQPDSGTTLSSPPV
Insulin-like growth factor 1 receptor, sequence (P08069 31-736 limits assumed): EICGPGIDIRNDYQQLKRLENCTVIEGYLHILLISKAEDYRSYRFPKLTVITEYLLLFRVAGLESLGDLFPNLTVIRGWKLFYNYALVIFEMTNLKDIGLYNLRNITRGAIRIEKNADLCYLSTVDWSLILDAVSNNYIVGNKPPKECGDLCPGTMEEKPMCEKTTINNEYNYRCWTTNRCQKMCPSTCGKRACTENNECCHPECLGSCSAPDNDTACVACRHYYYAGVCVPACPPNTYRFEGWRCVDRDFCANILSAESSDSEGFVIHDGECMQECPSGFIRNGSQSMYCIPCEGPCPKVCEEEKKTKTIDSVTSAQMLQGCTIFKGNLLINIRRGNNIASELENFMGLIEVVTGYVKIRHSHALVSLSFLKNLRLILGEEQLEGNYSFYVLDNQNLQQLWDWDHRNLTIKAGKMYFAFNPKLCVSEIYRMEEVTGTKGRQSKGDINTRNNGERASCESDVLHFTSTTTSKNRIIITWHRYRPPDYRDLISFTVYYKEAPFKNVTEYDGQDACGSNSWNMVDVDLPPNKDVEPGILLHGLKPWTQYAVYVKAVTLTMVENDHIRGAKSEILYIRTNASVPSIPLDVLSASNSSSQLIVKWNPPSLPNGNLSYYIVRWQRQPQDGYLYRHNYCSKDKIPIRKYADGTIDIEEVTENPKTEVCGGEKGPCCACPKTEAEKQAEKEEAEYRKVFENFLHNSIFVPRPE
Insulin-like growth factor 1 receptor, sequence (P08069 741-1367 limits assumed): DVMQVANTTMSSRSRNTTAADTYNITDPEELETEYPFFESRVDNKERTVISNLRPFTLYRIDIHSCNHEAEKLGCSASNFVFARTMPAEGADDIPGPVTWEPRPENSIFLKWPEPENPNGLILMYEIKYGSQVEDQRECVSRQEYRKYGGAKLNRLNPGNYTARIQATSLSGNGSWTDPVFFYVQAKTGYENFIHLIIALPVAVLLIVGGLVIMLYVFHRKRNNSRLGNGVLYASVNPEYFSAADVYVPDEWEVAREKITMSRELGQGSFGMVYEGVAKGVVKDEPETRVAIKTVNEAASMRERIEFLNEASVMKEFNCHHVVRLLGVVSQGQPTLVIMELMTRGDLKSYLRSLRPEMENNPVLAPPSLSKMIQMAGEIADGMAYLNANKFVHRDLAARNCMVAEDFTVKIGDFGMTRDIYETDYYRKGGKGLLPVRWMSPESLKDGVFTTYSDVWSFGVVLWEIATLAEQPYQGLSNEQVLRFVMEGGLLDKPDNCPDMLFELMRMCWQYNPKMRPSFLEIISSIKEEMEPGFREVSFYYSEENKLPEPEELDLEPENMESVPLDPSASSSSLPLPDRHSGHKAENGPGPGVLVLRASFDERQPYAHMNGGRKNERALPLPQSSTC
Angiopoietin-1 receptor, sequence (Q02763 whole entry, the tested form may be a part): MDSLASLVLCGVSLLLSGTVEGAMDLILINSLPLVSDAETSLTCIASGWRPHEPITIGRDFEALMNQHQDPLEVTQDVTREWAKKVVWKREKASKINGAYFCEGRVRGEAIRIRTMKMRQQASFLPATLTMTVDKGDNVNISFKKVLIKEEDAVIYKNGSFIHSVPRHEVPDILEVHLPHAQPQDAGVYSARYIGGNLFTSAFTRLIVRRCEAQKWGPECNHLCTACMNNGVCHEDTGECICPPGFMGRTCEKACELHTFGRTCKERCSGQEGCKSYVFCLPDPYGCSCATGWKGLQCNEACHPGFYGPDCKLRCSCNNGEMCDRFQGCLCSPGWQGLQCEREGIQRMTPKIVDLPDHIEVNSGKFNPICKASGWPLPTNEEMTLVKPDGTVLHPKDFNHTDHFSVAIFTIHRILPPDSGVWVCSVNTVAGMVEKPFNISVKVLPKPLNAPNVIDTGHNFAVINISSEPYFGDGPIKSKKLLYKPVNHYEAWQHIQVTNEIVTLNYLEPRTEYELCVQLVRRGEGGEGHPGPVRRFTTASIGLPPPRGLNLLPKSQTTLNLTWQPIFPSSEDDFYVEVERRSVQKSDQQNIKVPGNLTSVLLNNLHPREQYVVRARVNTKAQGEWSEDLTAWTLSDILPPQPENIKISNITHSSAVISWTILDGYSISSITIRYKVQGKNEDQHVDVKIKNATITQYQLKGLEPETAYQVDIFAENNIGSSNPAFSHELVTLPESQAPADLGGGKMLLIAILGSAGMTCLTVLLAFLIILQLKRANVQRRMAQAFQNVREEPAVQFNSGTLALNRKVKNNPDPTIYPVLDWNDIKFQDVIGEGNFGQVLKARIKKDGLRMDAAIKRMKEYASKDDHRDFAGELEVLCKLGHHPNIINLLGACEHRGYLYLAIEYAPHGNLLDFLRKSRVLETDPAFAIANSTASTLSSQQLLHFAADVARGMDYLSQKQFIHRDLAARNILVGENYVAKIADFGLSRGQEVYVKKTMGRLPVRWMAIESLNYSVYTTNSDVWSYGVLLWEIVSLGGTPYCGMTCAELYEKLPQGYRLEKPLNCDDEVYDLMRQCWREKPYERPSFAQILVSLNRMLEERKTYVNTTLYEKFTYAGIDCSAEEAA
Epidermal growth factor receptor, sequence (P00533 whole entry): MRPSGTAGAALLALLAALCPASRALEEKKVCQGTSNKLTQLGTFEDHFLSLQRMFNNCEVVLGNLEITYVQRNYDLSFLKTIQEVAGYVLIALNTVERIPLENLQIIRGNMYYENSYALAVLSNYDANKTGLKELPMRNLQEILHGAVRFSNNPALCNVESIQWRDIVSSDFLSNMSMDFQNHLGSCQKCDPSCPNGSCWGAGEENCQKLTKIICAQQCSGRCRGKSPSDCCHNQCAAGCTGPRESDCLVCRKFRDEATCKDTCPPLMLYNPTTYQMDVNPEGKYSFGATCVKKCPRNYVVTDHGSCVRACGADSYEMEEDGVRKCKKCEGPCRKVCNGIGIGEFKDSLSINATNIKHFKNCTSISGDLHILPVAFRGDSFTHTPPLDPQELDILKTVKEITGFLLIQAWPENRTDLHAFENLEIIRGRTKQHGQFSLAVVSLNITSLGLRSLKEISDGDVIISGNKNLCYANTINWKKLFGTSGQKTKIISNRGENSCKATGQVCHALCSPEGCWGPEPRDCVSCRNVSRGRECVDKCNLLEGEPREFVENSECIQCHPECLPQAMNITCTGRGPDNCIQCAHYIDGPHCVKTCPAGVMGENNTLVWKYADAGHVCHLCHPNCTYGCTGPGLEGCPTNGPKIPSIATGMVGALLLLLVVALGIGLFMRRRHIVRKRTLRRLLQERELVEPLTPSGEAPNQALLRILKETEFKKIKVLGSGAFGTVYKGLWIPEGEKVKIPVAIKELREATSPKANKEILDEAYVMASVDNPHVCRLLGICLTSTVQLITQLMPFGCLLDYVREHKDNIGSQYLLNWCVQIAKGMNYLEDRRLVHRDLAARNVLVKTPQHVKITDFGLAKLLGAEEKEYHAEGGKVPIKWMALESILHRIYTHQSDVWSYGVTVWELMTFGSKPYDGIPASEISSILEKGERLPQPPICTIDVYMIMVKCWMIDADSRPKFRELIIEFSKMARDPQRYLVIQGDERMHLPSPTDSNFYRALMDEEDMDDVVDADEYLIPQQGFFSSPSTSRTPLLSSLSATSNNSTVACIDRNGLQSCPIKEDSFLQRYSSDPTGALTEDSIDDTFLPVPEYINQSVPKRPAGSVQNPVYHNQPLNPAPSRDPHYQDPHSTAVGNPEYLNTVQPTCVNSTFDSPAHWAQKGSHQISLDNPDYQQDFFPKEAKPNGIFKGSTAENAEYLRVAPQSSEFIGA

Structure (SMILES)	IC50 (Angiopoietin-1 receptor) [µM]	IC50 [1] [µM]	IC50 [2] [µM]	IC50 [3] [µM]	IC50 [4] [µM]	IC50 [5] [µM]
CC1=C(CC(=O)O)c2cc(F)ccc2/C1=C\c1ccsc1 [Sulindac analogue, 13]	0.6	14	15			
CCC1=C(CC(=O)O)c2cc(F)ccc2/C1=C\c1ccc(OCc2ccccc2)cc1 [Sulindac analogue, 16]	2					
CC1=C(CC(=O)O)c2cc(Cl)ccc2/C1=C\c1ccoc1 [Sulindac analogue, 17]	5		14	8		7
CC1=C(CC(=O)O)c2cc(Br)ccc2/C1=C\c1ccccc1 [Sulindac analogue, 18]	1					
CC1=C(CC(=O)O)c2ccc(Br)cc2/C1=C\c1ccsc1 [Sulindac analogue, 19]	1	3	4	12	23	4
CC1=C(CC(=O)O)c2ccc(Br)cc2/C1=C/c1ccsc1 [Sulindac analogue, 20]	11					71
CC1=C(CC(=O)O)c2cc(I)ccc2/C1=C\c1cccc(OCc2ccccc2)c1 [Sulindac analogue, 22]	7					
CCC1=C(CC(=O)O)c2cc(/C=C/C(=O)OC(C)(C)C)ccc2/C1=C\c1ccsc1 [Sulindac analogue, 23]	5					

Other lines, results leading:

IC50 (Angiopoietin-1 receptor) [µM]	IC50 [1] [µM]	IC50 [2] [µM]	IC50 [3] [µM]	IC50 [4] [µM]	IC50 [5] [µM]	Structure (SMILES)
5						CC1=C(CC(=O)O)c2cc(F)ccc2/C1=C\c1ccc(F)c(F)c1 [Sulindac analogue, 10]
11						CC1=C(CC(=O)O)c2cc(F)ccc2/C1=C\c1cccc(OCc2ccccc2)c1 [Sulindac analogue, 11]
5						CC1=C(CC(=O)O)c2cc(F)ccc2/C1=C\c1cccs1 [Sulindac analogue, 12]
	8					CC1=C(CC(=O)O)c2cc(F)ccc2/C1=C\c1ccoc1 [Sulindac analogue, 14]
1	5		0.9	3		CCC1=C(CC(=O)O)c2cc(F)ccc2/C1=C\c1ccoc1 [Sulindac analogue, 15]
3	24	15	22		13	CC1=C(CC(=O)O)c2ccc(Br)cc2/C1=C\c1ccoc1 [Sulindac analogue, 21]
5						CCC1=C(CC(=O)O)c2cc(C#Cc3ccccc3)ccc2/C1=C\c1ccsc1 [Sulindac analogue, 24]
